Data from ChEMBL document CHEMBL3585318, “Effect of water solvation on the lipophilicity of isomeric pyrimidine-carboxamides” (Bioorg Med Chem, 2015).

What was measured:
Assay type in all cases: physicochemical
[1] = Lipophilicity, log D of the compound at pH 7.4 by UV/Vis spectroscopy based shake-flask method; conditions: buffer
[2] = Partition coefficient of buffer-octanol system, logP of the compound by shake-flask method
[3] = Dissociation constant, pKa of the compound

Row | logD [1] | logP [2] | pKa [3] | SMILES
1 | 1 | 1.1 | 2.9 | CCNC(=O)c1nc(OC)cc(N(C)C)n1
2 | 0.9 | 1.2 |  | O=C1CCCc2ncccc21
3 | 1 | 1.5 |  | O=C1CCCc2cnccc21
4 | 2.6 | 2.5 | 2.4 | CCNC(=O)c1cc(OC)nc(N(C)C)n1
5 | 1.6 | 1.7 | 3.8 | CCNC(=O)c1cc(N(C)C)nc(OC)n1
6 | 0.8 | 0.9 |  | O=C1CCCc2ccncc21

Row | SMILES | logD [1] | logP [2] | pKa [3]
7 | O=C1CCCc2cccnc21 | 0.2 | 0.4 | 
